Experimental data reported in paper PMC8630787 (ACS Sensors, 2021).

These molecules were tested against dihydroorotate dehydrogenase (DHODH) (Homo sapiens, UniProt Q02127) (assay: colorimetric DCIP reduction enzyme assay ([…] DHODH, L-DHO, coenzyme Q10)).
Type: biochemical

dihydroorotate dehydrogenase (DHODH), sequence (Q02127 whole entry): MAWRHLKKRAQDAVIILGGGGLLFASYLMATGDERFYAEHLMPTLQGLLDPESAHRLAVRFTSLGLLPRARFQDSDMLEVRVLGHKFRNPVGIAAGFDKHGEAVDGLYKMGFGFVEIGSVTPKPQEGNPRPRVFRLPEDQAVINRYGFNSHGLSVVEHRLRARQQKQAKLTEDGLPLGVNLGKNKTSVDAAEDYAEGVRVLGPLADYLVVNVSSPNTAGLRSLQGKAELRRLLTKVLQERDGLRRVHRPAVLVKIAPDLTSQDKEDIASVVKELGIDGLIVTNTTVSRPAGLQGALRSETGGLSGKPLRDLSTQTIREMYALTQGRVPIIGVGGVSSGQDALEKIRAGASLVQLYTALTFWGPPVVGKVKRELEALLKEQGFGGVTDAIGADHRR

Question: For C/C(O)=C(\C#N)C(=O)Nc1ccc(OC(F)(F)F)cc1 [CF3O-TF], which IC50 is on record?
Answer: 330 nM

Question: For C/C(O)=C(\C#N)C(=O)Nc1ccc(S(F)(F)(F)(F)F)cc1 [SF5-TF], which IC50 is on record?
Answer: 580 nM

Question: How did the IC50 turn out when C/C(O)=C(\C#N)C(=O)Nc1cc(C(F)(F)F)cc(C(F)(F)F)c1 [di-CF3-TF] was run?
Answer: 1320 nM
